According to US20120039844A1, “COMPOSITION AND USE OF N-ALPHA-METHYLHISTAMINE DIHYDROCHLORIDE FOR THE REDUCTION OF OXYGEN RADICAL FORMATION” (priority 2009, published 2012):

What was measured:
B16 melanoma cells = test: i.v. injected B16 melanoma in mice (lung tumor weight, pulmonary metastatic foci); type: in vivo; conditions: for tumor weight (wet lung weight at day 14) vs control mice: 24 hours before tumor cell inoculation, FIG. 4
Protocol: The anti-tumor properties of N-α-MH on i.v. injected B16 melanoma cells in mice were evaluated. One of N-α-MH, HDC, and a positive control were administered to the mice 24 hours before tumor cell inoculation as described by Hellstrand et al., J. Immunol., vol. 145, pp 4365-4370. Macroscopically visible pulmonary metastatic foci were counted fourteen days after the tumor cell inoculation. The tumor weight is the wet weight at day 14 of lungs from mice injected with tumor cells on day 0 as described by Hellstrand et al., J. Immunol., vol. 145, pp 4365-4370.

[1] = in the blood; cited from earlier work
[2] = test system: human mononuclear phagocytes; test: fMLF-induced oxygen radical formation (respiratory burst) in mononuclear phagocytes; type: cell-based; conditions: FIG. 1
NK cells [3] = test: Protection of NK cells from apoptosis inflicted by mononuclear phagocytes; type: cell-based, human; conditions: FIG. 2
Protocol: The ability of N-α-MH to protect NK cells from apoptosis inflicted by mononuclear phagocytes was evaluated. Cells were prepared as described by Hellstrand et al., J. Immunol., vol. 153, pp 4940-7, and mixtures of mononuclear phagocytes and NK cells were incubated overnight with HDC or N-α-MH at indicated final concentrations in 96-well microplates. Thereafter, cells were recovered and NK cells were analyzed for apoptosis (forward and side scatter) as described in Betten et al., J. Clin. Invest. Vol. 108, pp 1221-8 (hereby incorporated by reference in its entirety). FIG. 2 plots the results of six similar experiments.

NK cells [4] = test: CD69 expression on NK cells exposed to IL-2; type: cell-based; conditions: with human recombinant IL-2 50 U/ml, overnight; FIG. 3
Protocol: Three separate experiments were performed as described above with the addition of human recombinant IL-2 (50 U/ml) during the overnight incubation. The experiments were initiated with the aim at clarifying whether N-α-MH synergizes with IL-2 to activate NK cells in a fashion similar to HDC. The activation of NK cells by IL-2 was measured as the capacity of these cells to express the cell surface activation antigen CD69 (See, generally Hellstrand et al. JI 1994).

H2 receptor = H2 receptor (Homo sapiens, UniProt P25021); conditions: Saitoh et al., Gut 2002; cited from earlier work
Chain of H2 receptor (P25021 whole entry): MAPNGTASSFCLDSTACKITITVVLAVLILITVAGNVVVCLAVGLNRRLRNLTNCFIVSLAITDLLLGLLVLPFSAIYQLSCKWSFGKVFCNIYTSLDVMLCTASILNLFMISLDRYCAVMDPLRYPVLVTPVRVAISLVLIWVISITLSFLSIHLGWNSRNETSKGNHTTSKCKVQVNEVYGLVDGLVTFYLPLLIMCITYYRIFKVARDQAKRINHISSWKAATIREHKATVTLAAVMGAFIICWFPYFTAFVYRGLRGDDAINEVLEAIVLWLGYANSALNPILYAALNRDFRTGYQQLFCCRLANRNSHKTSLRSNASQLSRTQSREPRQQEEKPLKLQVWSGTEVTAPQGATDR

H1 receptors = H1 receptors (Homo sapiens, UniProt P35367); conditions: cited from earlier work
Chain of H1 receptors (P35367 whole entry): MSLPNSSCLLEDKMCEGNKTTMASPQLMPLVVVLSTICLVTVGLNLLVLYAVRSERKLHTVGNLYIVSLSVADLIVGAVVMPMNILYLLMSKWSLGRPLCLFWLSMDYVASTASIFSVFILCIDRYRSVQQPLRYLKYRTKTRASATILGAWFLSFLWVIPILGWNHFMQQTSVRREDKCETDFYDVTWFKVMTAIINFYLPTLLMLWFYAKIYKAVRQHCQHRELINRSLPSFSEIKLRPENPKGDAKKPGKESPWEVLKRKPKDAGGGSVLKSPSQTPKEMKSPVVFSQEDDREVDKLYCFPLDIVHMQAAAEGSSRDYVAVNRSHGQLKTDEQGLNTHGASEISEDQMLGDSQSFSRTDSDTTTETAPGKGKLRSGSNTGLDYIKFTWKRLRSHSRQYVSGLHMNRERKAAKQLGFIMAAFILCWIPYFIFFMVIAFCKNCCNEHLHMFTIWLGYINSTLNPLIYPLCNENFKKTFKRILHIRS

Row | SMILES | tumor weight (wet lung weight at day 14) vs control mice (B16 melanoma cells; 50 mg/kg) | half life [1] | inhibition of oxygen radical production ([2]; 5 min preincubation, then fMLF) | maximal response in terms of oxygen radical inhibition, compared with HDC ([2]; in vitro) | EC50 (NK cells [3]; Homo sapiens, overnight incubation with mononuclear phagocytes, six experiments, read-out: ED50 for protection of NK cells) [nM] | protection of NK cells from apoptosis, compared with HDC (NK cells [3]; in vitro) | expression of CD69 on NK cells (NK cells [4]) | potency relative to HDC in reducing tumor weight in vivo (B16 melanoma cells; 5 mg/kg N-α-MH equal to 50 mg/kg histamine) | tumor weight (wet lung weight at day 14) vs control mice (B16 melanoma cells; 5 mg/kg) | extent of tumor reduction (lung metastases) compared with HDC at 50 mg/kg (B16 melanoma cells; 5 mg/kg, 14 days after inoculation, FIG. 5) | number of melanoma lung metastases vs control mice (B16 melanoma cells; 50 mg/kg, 14 days after inoculation, FIG. 5) | potency relative to HDC in reducing melanoma metastasis in vivo (B16 melanoma cells; FIG. 5) | potency relative to HDC in reducing tumor formation in vivo (B16 melanoma cells; mouse, in vivo) | potency in stimulating cAMP production via the H2 receptor, compared with histamine (H2 receptor) | activity at H1 receptors (H1 receptors)
1 | Cl.Cl.NCCc1c[nH]cn1 [HDC, histamine dihydrochloride] | significantly reduced tumor weight | five | – | – | – | – | – | – | – | – | – | – | – | – | –
2 | CNCCc1c[nH]cn1 [N-α-MH, N-alpha-methyl-histamine] | significantly reduced tumor weight | – | potent inhibitor of oxygen radical production | at least comparable to HDC | 2200 | equally potent and effective at protecting NK cells from apoptosis as HDC | synergized with IL-2 to induce expression of CD69 on NK cells | about 10 times | significantly reduced tumor weight | about equal | significantly less lung metastases than control mice | approximately 10 times | approximately 10 times | significantly more potent than histamine | little or no activity at H1 receptors
